{
  "source": "patent US12252508B2",
  "about": "“Ginsenoside and anti-inflammatory composition comprising same” (AMOREPACIFIC CORPORATION, priority 2018, dated 2025)",
  "assay_type_in_all_cases": "cell-based",
  "key": {"[1]": {"system": "nitric oxide (NO) production in RAW264.7 macrophages", "test": "Nitric oxide (NO) production by Griess reaction in LPS-treated RAW 264.7 macrophages", "conditions": "1 or 10 μM 1 hour, then 10 ng/mL LPS 1 hour, FIG. 20", "procedure": "RAW 264.7 macrophages were treated with 10 μM L-NAME (NO production inhibitor; control group; Sigma), ginsenosides Rg1, Rg3 and Rb1 (purchased from Sigma), which are marker compounds of red ginseng, as comparative examples of the present disclosure or the novel ginsenoside GS #10 (extracted from ginseng seed) as an example of the present disclosure at 1 or 10 μM for 1 hour, and then treated with 10 ng/mL LPS for 1 hour. The amount of NO produced during 1 hour was measured using the Griess reaction. Briefly, after adding 50 μL of sulfanilamide solution to 50 μL of each ginsenoside sample, the mixture was incubated for 10 minutes at room temperature under protection from light. Then, after adding N-(1-napthyl)ethylenediamine solution (50 μL), the mixture was further incubated for 10 minutes at room temperature under protection from light. The […] of NO was measured at a wavelength of 540 nm using a Tecan Infinite® 200 Pro multiplate reader. Sodium nitrite (NaNO2) was used to create a standard curve."}, "[2]": {"system": "SH-SY5Y cells", "test": "Cytotoxicity, cell viability by CCK-8", "conditions": "0.1, 1, 5, 10, 20 and 50 μM, FIG. 21", "procedure": "After adding 10 μL of CCK-8 reagent to SH-SY5Y cells (Dojindo, MD, USA) on a 96-well plate and maintaining at 37° C. for 2 hours, absorbance was measured at 450 nm.\nCell viability was represented as the percentage (%) of the absolute optical density of each sample with respect to an untreated sample. The concentrations of the novel ginsenoside GS #10 according to an exemplary embodiment of the present disclosure in the medium for culturing the cells were 0.1, 1, 5, 10, 20 and 50 μM."}, "[3]": {"system": "inflammation-related genes (IL-1β, IL-6 and iNOS)", "test": "Overall anti-inflammatory effect from qPCR of inflammation-related genes (Test Example 2)", "conditions": "RAW 264.7; 1 or 10 μM, LPS 10 ng/mL; relative to Rg1; FIGS. 14-16", "procedure": "(§1) RAW 264.7 macrophages purchased from ATCC were cultured in Dulbecco's modified Eagle's medium (Sigma) supplemented with 10% fetal bovine serum (FBS; HyClone) and 1% penicillin/streptomycin (Sigma) in a 5% CO2 incubator. After pretreating the RAW 264.7 cells with each of the 7 ginsenosides extracted from ginseng seed (GS #01 to GS #06 and GS #10; 10 μM each) for 2 hours, the cells were further treated with 10 ng/mL lipopolysaccharide (LPS; inflammation-induced group, Sigma) for 6 hours. Then, after extracting RNA using a Trizol™ reagent (Thermo Fisher Scientific), cDNA was synthesized using a RevertAid™ first-strand cDNA synthesis kit (Thermo Fisher Scientific). The expression of inflammation-related genes (IL-1β, IL-6 and iNOS) was observed using a CFX96 real-time quantitative PCR (qPCR) system (Bio-Rad).\n(§2) RAW 264.7 macrophages were pretreated with ginsenosides Rg1, Rg3 and Rb1 (purchased from Sigma), which are marker compounds of red ginseng, as comparative examples of the present disclosure or the novel ginsenoside GS #10 (isolated from the ginseng seed extract) as an example of the present disclosure at 1 or 10 μM for 2 hours and then further treated with 10 ng/mL lipopolysaccharide (LPS) for 6 hours to induce inflammation. Then, after extracting RNA and synthesizing cDNA in the same manner as in Test Example 1, the expression of inflammation-related genes was observed by qPCR. […]"}, "[4]": {"system": "interleukin 1β (IL-1β)", "test": "IL-1β secretion by ELISA in LPS-treated RAW 264.7 macrophages", "conditions": "RAW 264.7, serum-free medium, 1 or 10 μM 2 hours, then 10 ng/mL LPS 6 hours, FIG. 18", "procedure": "(§3) RAW 264.7 macrophages were used as in Test Example 2. A serum-free medium without comprising FBS was used for the measurement of the amount of cytokines. After pretreating the cells for 2 hours with each ginsenoside at 1 or 10 μM under the same condition as in Test Example 1 and then treating with 10 ng/mL LPS for 6 hours, only the medium was recovered and the secretion of pro-inflammatory cytokines, tumor necrosis factor α (TNF-α), interleukin 1β (IL-1β) and IL-6, was measured using an enzyme-linked immunosorbent assay kit (Abcam)."}, "[5]": {"system": "iNOS", "test": "iNOS gene expression by qPCR in LPS-treated RAW 264.7 macrophages", "conditions": "then 10 ng/mL LPS 6 hours", "procedure": "as §1, §2"}, "[6]": {"system": "IL-1β", "test": "IL-1β gene expression by qPCR in LPS-treated RAW 264.7 macrophages", "conditions": "then 10 ng/mL LPS 6 hours", "procedure": "as §1, §2"}, "[7]": {"system": "IL-6", "test": "IL-6 gene expression by qPCR in LPS-treated RAW 264.7 macrophages", "conditions": "then 10 ng/mL LPS 6 hours", "procedure": "as §1, §2"}, "[8]": {"system": "IL-6", "test": "IL-6 secretion by ELISA in LPS-treated RAW 264.7 macrophages", "conditions": "RAW 264.7, serum-free medium, 1 or 10 μM 2 hours, then 10 ng/mL LPS 6 hours, FIG. 19", "procedure": "as §3"}, "[9]": {"system": "tumor necrosis factor α (TNF-α)", "test": "TNF-α secretion by ELISA in LPS-treated RAW 264.7 macrophages", "conditions": "RAW 264.7, serum-free medium, 1 or 10 μM 2 hours, then 10 ng/mL LPS 6 hours, FIG. 17", "procedure": "as §3"}},
  "note": "“Also recorded” adds a separate entry of the source.",
  "data": [
    {"smiles": "CC1(C)C(=O)CC[C@@]2(C)C1[C@@H](O[C@H]1OC(CO)[C@H](O)C(O)C1O[C@H]1OC(CO)[C@H](O)C(O)C1O)C[C@]1(C)C2C[C@@H](O)C2C([C@]3(C)CC[C@H](C(C)(C)O)O3)CC[C@]21C", "note": "(stereo partly drawn) [Compound 10, (20S,24R)-6-O-β-D-glucopyranosyl(1→2)-β-D-glucopyranoside-dammar-3-one-20,24-epoxy-6a,12b,25-triol]", "values": [
      {"measurement": "NO production-inhibiting ability compared to Rg1, Rg3 and Rb1", "setting": "[1]", "result": "remarkably superior"},
      {"measurement": "NO production", "setting": "[1]; with increasing dosage", "result": "decreased"},
      {"measurement": "cytotoxicity (cell viability, % of untreated sample)", "setting": "[2]", "result": "no cytotoxicity"},
      {"measurement": "anti-inflammatory effect superior to that of Rg1", "setting": "[3]", "result": "about 10 times"},
      {"measurement": "secretion of IL-1β", "setting": "[4]", "result": "significant decreased secretion"},
      {"measurement": "expression level of the iNOS gene", "setting": "[5]; 10 μM pretreatment 2 hours, compared to Compounds 1-6 at the same concentration, FIG. 13", "result": "remarkably suppress"},
      {"measurement": "anti-inflammatory effect (iNOS expression level)", "setting": "[5]; 1 or 10 μM for 2 hours, compared to Rg1, Rg3 and Rb1, FIG. 16, listed as GS #10", "result": "remarkably excellent anti-inflammatory effect; also recorded: decreased greatly"},
      {"measurement": "expression level of the IL-1β gene", "setting": "[6]; 10 μM pretreatment 2 hours, compared to Compounds 1-6 at the same concentration, FIG. 11", "result": "remarkably suppress"},
      {"measurement": "anti-inflammatory effect (IL-1β expression level)", "setting": "[6]; 1 or 10 μM for 2 hours, compared to Rg1, Rg3 and Rb1, FIG. 14", "result": "remarkably excellent anti-inflammatory effect"},
      {"measurement": "expression level of the IL-6 gene", "setting": "[7]; 10 μM pretreatment 2 hours, compared to Compounds 1-6 at the same concentration, FIG. 12", "result": "remarkably suppress"},
      {"measurement": "anti-inflammatory effect (IL-6 expression level)", "setting": "[7]; 1 or 10 μM for 2 hours, compared to Rg1, Rg3 and Rb1, FIG. 15", "result": "remarkably excellent anti-inflammatory effect"},
      {"measurement": "secretion of IL-6", "setting": "[8]", "result": "significant decreased secretion"},
      {"measurement": "secretion of TNF-α", "setting": "[9]", "result": "significant decreased secretion"}
    ]},
    {"smiles": "CC(C)=CCC[C@](C)(O[C@@H]1O[C@H](CO[C@@H]2O[C@H](CO)[C@@H](O)[C@H](O)[C@H]2O)[C@@H](O)[C@H](O)[C@H]1O)[C@H]1CC[C@]2(C)[C@@H]1[C@H](O)C[C@@H]1[C@@]3(C)CC[C@H](O[C@@H]4O[C@H](CO)[C@@H](O)[C@H](O)[C@H]4O[C@@H]4O[C@H](CO)[C@@H](O)[C@H](O)[C@H]4O)C(C)(C)[C@@H]3CC[C@]12C", "note": "[Rb1, ginsenoside Rb1]", "values": [
      {"measurement": "secretion of IL-1β", "setting": "[4]", "result": "decreased"},
      {"measurement": "secretion of IL-6", "setting": "[8]", "result": "decreased"},
      {"measurement": "secretion of TNF-α", "setting": "[9]", "result": "decreased"}
    ]},
    {"smiles": "CC(C)=CCC[C@](C)(O[C@@H]1O[C@H](CO)[C@@H](O)[C@H](O)[C@H]1O)[C@H]1CC[C@]2(C)[C@@H]1[C@H](O)C[C@@H]1[C@@]3(C)CC[C@H](O)C(C)(C)[C@@H]3[C@@H](O[C@@H]3O[C@H](CO)[C@@H](O)[C@H](O)[C@H]3O)C[C@]12C", "note": "[Rg1, ginsenoside Rg1]", "values": [
      {"measurement": "secretion of IL-1β", "setting": "[4]", "result": "decreased"},
      {"measurement": "secretion of IL-6", "setting": "[8]", "result": "decreased"},
      {"measurement": "secretion of TNF-α", "setting": "[9]", "result": "decreased"}
    ]},
    {"smiles": "CC(C)=CCC[C@](C)(O)[C@H]1CC[C@]2(C)[C@@H]1[C@H](O)C[C@@H]1[C@@]3(C)CC[C@H](O[C@@H]4O[C@H](CO)[C@@H](O)[C@H](O)[C@H]4O[C@@H]4O[C@H](CO)[C@@H](O)[C@H](O)[C@H]4O)C(C)(C)[C@@H]3CC[C@]12C", "note": "[Rg3, ginsenoside Rg3]", "values": [
      {"measurement": "secretion of IL-1β", "setting": "[4]", "result": "decreased"},
      {"measurement": "secretion of IL-6", "setting": "[8]", "result": "decreased"},
      {"measurement": "secretion of TNF-α", "setting": "[9]", "result": "decreased"}
    ]}
  ]
}
